Test results as given in ChEMBL document CHEMBL1136347, “Synthesis of 17beta-estradiol platinum(II) complexes: biological evaluation on breast cancer cell lines” (Bioorg Med Chem Lett, 2003).

Legend:
Type in all cases: functional, cell-based
[1] = test system: MDA-MB-231; assay: In vitro inhibition of estrogen receptor negative human breast cancer MDA-MB-231 cell proliferation
[2] = test system: Hs-578T; assay: In vitro inhibition of estrogen receptor negative human breast cancer Hs 578.T cell proliferation
[3] = test system: MCF7; assay: In vitro inhibition of estrogen receptor positive human breast cancer MCF-7 cell proliferation
[4] = test system: ZR-75-1; assay: In vitro inhibition of estrogen receptor positive human breast cancer ZR-75-1 cell proliferation

Row | IC50 [1] [µM] | IC50 [3] [µM] | Substance | IC50 [2] [µM] | IC50 [4] [µM]
1 | 12.7 | 16.7 | CISPLATIN | 9.1 | 9.3
2 | 4.7 | 4 | Cisplatin complex [listing 1 of 8 here] | 3.5 | 2.5
3 | 8.6 | 5.8 | Cisplatin complex [listing 2 of 8 here] | 2.7 | 4.2
4 | 4.8 | 4.3 | Cisplatin complex [listing 3 of 8 here] | 4.1 | 5
5 | > 40 | > 40 | Cisplatin complex [listing 4 of 8 here] | > 40 | 31.5
6 | 18.5 | 31.5 | Cisplatin complex [listing 5 of 8 here] | 28 | 16.4
7 | – | 20 | Cisplatin complex [listing 6 of 8 here] | 22.9 | 15.8
8 | 12.7 | – | Cisplatin complex [listing 7 of 8 here] | 17.3 | 14
9 | 9.2 | 13.4 | Cisplatin complex [listing 8 of 8 here] | 12.4 | 9.3
